Results taken from publication PMC12526156, “Optimization of the Macrocyclic Tetrapeptide [D-Trp]CJ-15,208 to Prevent Stress-Induced Relapse of Cocaine-Seeking Behavior” (Molecules, 2025).
In brackets after ≈: the same amount, converted by molar mass. Where two headings read alike, the source gives them in different places. Where a SMILES comes first, the peptide text is derived from it. [ ]: non-standard residue; d: D form. The star is where a group is joined. dPhe(3,5-F2) = N[C@H](Cc1cc(F)cc(F)c1)C(=O)O; dPhe(3-Me) = Cc1cccc(C[C@@H](N)C(=O)O)c1; dPhe(3-F) = N[C@H](Cc1cccc(F)c1)C(=O)O; For = O=C*

What was measured:
hKOR [1] = biological target: T1, hKOR (Homo sapiens, UniProt P41145); assay: Competition binding, [3H]U69,593, hKOR-CHO membranes
human MOR = biological target: T2, human MOR (Homo sapiens, UniProt P35372); assay: biochemical; assay type: binding
T2 construct: expressed in transfected cells

hKOR [2] = biological target: T1, hKOR; assay: KOR cAMP assay using GloSensor-22F, agonist mode (KOR-CHO-GLO cells); assay type: cell-based; conditions: read-out: KOR Efficacy (%)
hKOR [3] = biological target: T1, hKOR; assay: KOR cAMP assay using GloSensor-22F, antagonist mode (vs 10 nM U50,488); assay type: cell-based
Excerpt: A piggy-Bac (PB) transposon/transposase system was utilized to allow for the stable integration of the GloSensor-22F cAMP sensor (Promega, Madison, WI, USA) gene into genomic TTAA sites in Chinese hamster ovary cells already stably expressing the hKOR. The pFastBac hyperPB plasmid vector, which codes for the piggy-Bac transposon/transposase system, was utilized and was a kind gift from Dr. John Lueck. The multicistronic expression cassette developed for our experiments consisted of a CMV promoter driving constitutive expression of GloSensor-22F cAMP sensor, followed by an internal ribosome entry site (IRES) to drive the expression of codon-optimized HygR-P2A-mScarlet (hygromycin resistance gene and mScarlet separated by a 2A self-cleaving peptide element). To clone the expression cassette onto the pFastBac vector, the CMV promoter and GloSensor-22F were PCR amplified from pGloSensor-22F cAMP Plasmid (Promega), the IRES sequence was PCR amplified from pLVX-CMV-Galpha-oA ONE-GO (a gift from Dr. Mikel Garcia-Marcos, Addgene plasmid #189732), the HygR-P2A-mScarlet sequence was a kind gift from Dr. Lueck, and a bGH-poly(A) termination sequence was PCR amplified from pcDNA3.1(+). The pFastBac vector was linearized via overnight digestion with CspCI at 37 °C, which cuts between two inverted terminal repeat (ITR) sequences, and the corresponding backbone and all PCR fragments were gel purified and assembled via Gibson assembly using the Gibson Assembly MasterMix (New England Biolabs, Ipswich, MA, USA). The resulting pFastBac CMV GloSensor-22F IRES HygR-P2A-mScarlet bGH plasmid was transformed into NEB Stable Competent E. coli (New England Biolabs), miniprepped using the E.Z.N.A. Plasmid DNA Mini Kit (Omega Bio-Tek, Norcross, GA, USA), and sequence verified by nanopore whole-plasmid sequencing (Eurofins Genomics, Louisville, KY, USA).
3.0 × 10^6 hKOR-CHO cells were plated on a 6 cm dish and incubated for four h at 37 °C and 5% CO2 in DMEM (Corning Mediatech, Manassas, VA, USA) supplemented with 5% FBS (Corning Mediatech), 1% Penicillin/Streptomycin (Gibco, Waltham, MA, USA). The cells were then transfected with 2.0 μg pFastBac CMV GloSensor-22F IRES HygR-P2A-mScarlet bGH using PEI as a transfection reagent. The following day, transfected cells were reseeded onto a 10 cm dish at a density of 5.0 × 10^5 cells and 600 μg/mL hygromycin B (Gold Bio, St. Louis, MO, USA) was added to the culture media. Cells were cultured under selection antibiotics for seven days, and the selection process was monitored by the increase in abundance of mScarlet positive cells via epifluorescence microscopy.
Following the selection period, KOR-CHO-GLO cells were maintained at 37 °C and 5% CO2 in DMEM supplemented with 5% FBS, 1% Penicillin/Streptomycin and 300 μg/mL hygromycin B to reduce the likelihood of CMV promoter silencing. On the day of the assay, cells were detached with 0.05% trypsin (Gibco) and counted, then centrifuged (1000× g, 5 min) and resuspended in assay buffer (1xPBS, 0.1% glucose, 0.5 mM MgCl2) containing 4 mM D-luciferin substrate (Gold Bio) at approximately 2 million cells/mL. 25 μL of cells (~50,000/well) were seeded onto poly L-lysine-coated white 96-well flat bottom plates (Greiner Bio-One, Kremsmünster, Austria)) and returned to the incubator for 60 min. Following incubation, cells were allowed to equilibrate to room temperature protected from light (10–15 min). Initial luminescence readings (at least 10 cycles) were collected for each well using a FLUOstar Omega v.6.2 plate reader (BMG Labtech, Ortenberg, Germany), after which the plate was removed. Prepared 4x treatments of drug (25 μL) were added to appropriate wells followed by 50 μL of 20 μM forskolin (AmBeed, Buffalo Grove, IL, USA) before the plate was returned to the reader and luminescence measured until final plateau levels were achieved (20–30 min). Assays were performed in duplicate and repeated at least three times.

[4] = Metabolic stability in human liver microsomes; assay type: in vitro ADME; conditions: 1 mg protein/mL; for half-life at 1 µM / microsomal CLint at 1 µM: human liver microsomes
Procedure: (§1) Evaluation of the metabolic stability of the macrocyclic tetrapeptides by human and mouse liver microsomes was performed by Curia Global (Buffalo, NY, USA). […]

[5] = Metabolic stability in mouse liver microsomes; assay type: in vitro ADME; conditions: 1 mg protein/mL; for half-life at 1 µM / microsomal CLint at 1 µM: mouse liver microsomes
Procedure: as §1

[6] = Kinetic aqueous solubility; assay type: physicochemical; conditions: 1% DMSO, pH 7.4
Excerpt: Table A1 Stability of [D-Trp]- and [D-Phe^4]CJ-15,208 and selected analogs in human (HLMs) and mouse liver microsomes (MLMs)^1. and kinetic aqueous solubility. | column: Solubility ^2 / (µM)

C57BL/6J mice [7] = system: C57BL/6J mice; parameters: method as in PMID 23425081; conditions: cited from earlier work
KOR = biological target: KOR; parameters: method as in PMID 37765026; conditions: cited from earlier work
C57BL/6J mice [8] = assay: 55 °C warm-water tail-withdrawal assay, antinociception; assay type: in vivo, mouse; conditions: p.o. dose response; significant only first 10 min at high doses
Procedure: For intracerebroventricular administration, peptides were dissolved in DMSO at a concentration of 20 mM (100 nmol/5 µL), then diluted to test doses in a final vehicle solution of 50%DMSO/50% saline (0.9%). For all other testing (for oral administration), peptides were made fresh each day for testing in a final vehicle solution of 10% DMSO/10% Solutol/80% saline (0.9%).
Intracerebroventricular injections were made directly into the lateral ventricle according to the modified steps detailed previously. The volume of all i.c.v. injections was 5 μL, using a 10 μL Hamilton microliter syringe. The mouse was lightly anesthetized with isoflurane, an incision was made in the scalp, and the injection was made 2 mm lateral and 2 mm caudal to bregma at a depth of 3 mm.
The dose response of analogs 3, 6, 9 and 14 were also assessed following administration of one of up to four additional oral (p.o.) doses (1–30 mg/kg).

CNS KORs = CNS KORs (Mus musculus, UniProt P33534); assay: 55 °C WWTW assay, antagonism of centrally administered U50,488 (30 nmol, i.c.v.); conditions: 2.5 h pretreatment; for antagonism of CNS KORs: 30 mg/kg, p.o. (9: 10 mg/kg, p.o.)
DOR = DOR (Mus musculus, UniProt P32300); assay: 55 °C WWTW assay, antagonism of the DOR-selective agonist SNC80; conditions: 3 or 4 30 mg/kg, p.o., 9 10 mg/kg, 2.5 h before SNC-80 100 nmol, i.c.v.
MOR = MOR (Mus musculus, UniProt P42866); assay: 55 °C WWTW assay, antagonism of the MOR-preferring agonist morphine; conditions: 3 or 4 30 mg/kg, p.o., 9 10 mg/kg, 2.5 h before morphine 10 mg/kg, i.p.
C57BL/6J mice [9] = assay: Stress-induced reinstatement of extinguished cocaine conditioned place preference; conditions: for fold lower dose for significant reduction of stress-induced reinstatement than [D-Trp]CJ-15,208: vs 60 mg/kg
[10] = 1 µM compound, 37 °C, read-out: HLM t1/2
[11] = 1 µM compound, 37 °C, read-out: MLM t1/2
[12] = [3H]U69,593, human KOR, ± S.E.M., three independent experiments, read-out: KOR Ki
[13] = [3H]DAMGO, human MOR, ± S.E.M., three independent experiments, read-out: MOR Ki
[14] = p.o. once daily for two days, 1.5 h prior to FSS

Structure (SMILES)	Emax at 10 µM (hKOR [2]) [%]	IC50 (hKOR [3]) [nM]	half-life at 1 µM [4, 10] [min]	microsomal CLint at 1 µM ([4]; read-out: HLM CLint) [µL/min/mg]	half-life at 1 µM [5, 11] [min]	microsomal CLint at 1 µM ([5]; read-out: MLM CLint) [µL/min/mg]	solubility kinetic [6] [µM]	Selectivity (MOR Ki/KOR Ki) (hKOR [1]; MOR Ki/KOR Ki)	Ki (hKOR [1]; [12]) [nM]	Ki (human MOR; [13]) [nM]	antinociception (C57BL/6J mice [8]) [%]	antagonism of CNS KORs (CNS KORs)	effect on antinociceptive effects of SNC80 (DOR)	effect on antinociceptive effects of morphine (MOR)	doses not producing significant antagonism of CNS KORs (CNS KORs)	doses not preventing stress-induced reinstatement of cocaine CPP (C57BL/6J mice [9]; [14]) [mg/kg]	fold lower dose for significant reduction of stress-induced reinstatement than [D-Trp]CJ-15,208 (C57BL/6J mice [9]; p.o.) [fold]	further results
O=C1N[C@H](Cc2c[nH]c3ccccc23)C(=O)N[C@@H](Cc2ccccc2)C(=O)N2CCC[C@@H]2C(=O)N[C@H]1Cc1ccccc1 [Analog 1, cyclo[Phe-D-Pro-Phe-D-Trp]] (cyclo(F[dP]F[dW]))	16 ± 2.4	66 ± 11	5.5	127	2.6	269	23 (≈ 13.3 µg/mL)	–	–	–	–	–	–	–	–	–	–	Ki (hKOR [1]): 6.9 ± 1.1 nM; Selectivity (MOR Ki/KOR Ki) (hKOR [1]): 8; Ki (human MOR): 58 ± 7.5 nM; dose required to prevent stress-induced reinstatement (C57BL/6J mice [7]): 60 mg/kg, p.o.; Ki (KOR): 21.8 nM
Cc1cccc(C[C@H]2NC(=O)[C@H](Cc3ccccc3)NC(=O)[C@H]3CCCN3C(=O)[C@H](Cc3ccccc3)NC2=O)c1 [Analog 14, [D-Phe(m-Me)^4]CJ-15,208] (cyclo(F[dP]F[dPhe(3-Me)]))	0.74 ± 5.7	320 ± 67	–	–	–	–	19 (≈ 10.5 µg/mL)	5	26 ± 3	130 ± 11	< 20	ineffective	–	–	–	–	–	half-life ([4]; microsomes, 1 µM compound, 37 °C, read-out: HLM t1/2): 4.1 min; microsomal CLint ([4]; microsomes, read-out: HLM CLint): 170 µL/min/mg; half-life ([5]; microsomes, 1 µM compound, 37 °C, read-out: MLM t1/2): 1.5 min; microsomal CLint ([5]; microsomes, read-out: MLM CLint): 467 µL/min/mg
O=C1N[C@H](Cc2cccc(F)c2)C(=O)N[C@@H](Cc2ccccc2)C(=O)N2CCC[C@@H]2C(=O)N[C@H]1Cc1ccccc1 [Analog 6, [D-Phe(m-F)^4]CJ-15,208] (cyclo(F[dP]F[dPhe(3-F)]))	11 ± 5.6	340 ± 58	1.8	376	2.1	331	26 (≈ 14.5 µg/mL)	5	32 ± 5.8	160 ± 15	< 20	ineffective	–	–	–	–	–	–
O=C1N[C@H](Cc2ccccc2)C(=O)N[C@@H](Cc2ccccc2)C(=O)N2CCC[C@@H]2C(=O)N[C@H]1Cc1ccccc1 [Analog 4, cyclo[Phe-D-Pro-Phe-D-Phe]] (cyclo(F[dP]F[dF]))	19 ± 8.1	460 ± 100	4.2	165	1.6	447	24 (≈ 12.9 µg/mL)	11	24 ± 0.97	270 ± 23	< 20	significant antagonism	no significant effect	no significant effect	3 mg/kg, p.o.	3	6	fold lower KOR affinity than [D-Trp]CJ-15,208 (1) (hKOR [1]): 3.5 fold
O=Cn1cc(C[C@H]2NC(=O)[C@H](Cc3ccccc3)NC(=O)[C@H]3CCCN3C(=O)[C@H](Cc3ccccc3)NC2=O)c2ccccc21 [Analog 3, [D-Trp(formamide)]CJ-15,208] (cyclo(F[dP]F[dW](For)))	9.2 ± 4.9	49 ± 5.4	2.8	244	1.1	607	4.6 (≈ 2.79 µg/mL)	41	2.2 ± 0.15	90 ± 14	< 20	significant antagonism	no significant effect	no significant effect	1–10 mg/kg, p.o.	10	2	doses giving significant antagonism of CNS KORs (CNS KORs): 30 mg/kg, p.o.; doses preventing stress-induced reinstatement of cocaine CPP (C57BL/6J mice [9]; [14]): 30 mg/kg
O=C1N[C@H](Cc2cc(F)cc(F)c2)C(=O)N[C@@H](Cc2ccccc2)C(=O)N2CCC[C@@H]2C(=O)N[C@H]1Cc1ccccc1 [Analog 9, [D-Phe(3,5-F2)^4]CJ-15,208] (cyclo(F[dP]F[dPhe(3,5-F2)]))	14 ± 2.4	320 ± 49	2.9	237	1.2	600	8.6 (≈ 4.94 µg/mL)	12	25 ± 4.3	290 ± 27	< 20	significant antagonism	no significant effect	no significant effect	–	–	–	reduction of stress-induced reinstatement of cocaine CPP (C57BL/6J mice [9]; 10 mg/kg, p.o.): not significant
